Source: patent US10815222B2, “Compounds for use in the treatment of kinetoplastid infection” (C.N.C.C.S. S.c.a.r.l. COLLEZIONE NAZIONALE DEI COMPOSTI …, priority 2016, dated 2020)
Like-named read-outs stand apart in the source and are kept apart here.

System: Bloodstream form of Trypanosoma brucei, strain Lister 427
Assay: Trypanosoma brucei growth inhibition assay (CellTiter-Glo, 24 h)
Format: cell-based
Details: T. Brucei Growth Inibition Assay, class symbols, read-out: T. Brucei GI EC50
Description: Bloodstream form of Trypanosoma brucei, strain Lister 427 (provided by Prof. Miguel Navarro, Instituto de Parasitologia y Biomedicina “Lopez-Neyra” Avda. Conocimiento S/N Parque Tecnologico Ciencias de la Salud—Spain; ref. Navarro M. and Cross G. A. M. Molecular and Cellular Biology, 1996, Vol. 16, No. 7, pp. 3615-3625) were grown in IMDM Iscove's Modified Dulbecco's Medium (SIGMA #17633) supplemented with: 3.024 g/l sodium bicarbonate, hypoxanthine 1 mM, thymidine 0.16 mM, bathocuprione sulfonic acid 0.05 mM, cysteine 1.5 mM, ß-mercaptoethanol […] and 10% foetal bovine serum (heat-inactivated at 56° C. for 30 min). Parasites were grown at 37° C. in flasks with vented caps in a 5% CO2 incubator to a maximum cell density of about 2×10^6/ml and diluted every two-three days.
The compounds of the invention were dissolved in DMSO and transferred to assay plates by acoustic droplet ejection (ATS-100, EDC Biosystems, USA) in order to obtain an appropriate concentration and to keep the concentration of DMSO below or equal to 0.25% in the final assay volume of 30 μL. 1500 parasites resuspended in 30 μL of culture medium were then transferred to each well of a 384-well plate.
After an incubation period of 24 hours at 37° C., each well is added 15 μl of CellTiter-Glo® Reagent (Promega) and incubated at room temperature. 5-10 min post incubation, the plate is read using a luminometer (ViewLux®). A known inhibitor of the growth of T. brucei was used as the reference positive control.

| SMILES | EC50 (Trypanosoma brucei) | EC50 |
| --- | --- | --- |
| COc1nc2ccccc2cc1-c1cnc(C2CN(CC3CCOC3)CCN2C(=O)CS(=O)(=O)c2ccccc2)[nH]1 (stereo not drawn) | 1010 to 5000 nM | – |
| COc1nc2ccccc2cc1-c1cnc(C2CN(C)CCN2C(=O)Cc2c[nH]c3ncccc23)[nH]1 (stereo not drawn) | 1010 to 5000 nM | – |
| COc1nc2ccccc2cc1-c1cnc(C2CN(CC3CCOC3)CCN2C(=O)Cc2sc3ccccc3c2C)[nH]1 (stereo not drawn) | 100 to 500 nM | – |
| COc1nc2ccccc2cc1-c1cnc(C2CN(CC3CC3)CCN2C(=O)CC2=C(C)NC3C=CC=CC23)[nH]1 (stereo not drawn) | 100 to 500 nM | – |
| Cc1csc(CC(=O)N2CCN(CC3CC3)CC2c2ncc(-c3ccc4ccccc4c3)[nH]2)n1 (stereo not drawn) | 1010 to 5000 nM | – |
| O=C(Cc1c[nH]c2ccc(O)cc12)N1CCN(CC2CC2)CC1c1ncc(-c2ccc3ccccc3c2)[nH]1 (stereo not drawn) | 1010 to 5000 nM | – |
| Cn1cc(CC(=O)N2CCN(CC3CC3)CC2c2ncc(-c3ccc4ccccc4c3)[nH]2)c2ccccc21 (stereo not drawn) | 1010 to 5000 nM | – |
| Cc1[nH]c2ccccc2c1CC(=O)N1CCN(CC2CC2)CC1c1ncc(-c2ccc3ccccc3c2)[nH]1 (stereo not drawn) | 100 to 500 nM | – |
| O=C(Cc1n[nH]c2ccccc12)N1CCN(CC2CC2)CC1c1ncc(-c2ccc3ccccc3c2)[nH]1 (stereo not drawn) | 1010 to 5000 nM | – |
| COc1nc2ccccc2cc1-c1cnc(C2CN(Cc3ccccc3)CCN2C(=O)CC2=C(C)NC3C=CC=CC23)[nH]1 (stereo not drawn) | 100 to 500 nM | – |
| O=C(Cc1c[nH]c2ccc(O)cc12)N1CCN(Cc2ccccc2)CC1c1ncc(-c2ccc3ccccc3c2)[nH]1 (stereo not drawn) | 1010 to 5000 nM | – |
| Cn1cc(CC(=O)N2CCN(Cc3ccccc3)CC2c2ncc(-c3ccc4ccccc4c3)[nH]2)c2ccccc21 (stereo not drawn) | 1010 to 5000 nM | – |
| O=C(Cc1n[nH]c2ccccc12)N1CCN(Cc2ccccc2)CC1c1ncc(-c2ccc3ccccc3c2)[nH]1 (stereo not drawn) | 1010 to 5000 nM | – |
| Cc1[nH]c2ccccc2c1CC(=O)N1CCN(Cc2ccccc2)CC1c1ncc(-c2ccc3ccccc3c2)[nH]1 (stereo not drawn) | 1010 to 5000 nM | – |
| Cc1csc(CC(=O)N2CCN(Cc3ccccc3)CC2c2ncc(-c3ccc4ccccc4c3)[nH]2)n1 (stereo not drawn) | 1010 to 5000 nM | – |
| CCCCCCN1CCN(C(=O)CC2=C(C)NC3C=CC=CC23)C(c2ncc(-c3cc4ccccc4nc3O)[nH]2)C1 (stereo not drawn) | 1010 to 5000 nM | – |
| CCCCCCN1CCN(C(=O)CC2=C(C)NC3C=CC=CC23)C(c2ncc(-c3cc4ccccc4nc3OC)[nH]2)C1 (stereo not drawn) | 100 to 500 nM | – |
| CCCCCCN1CCN(C(=O)Cc2n[nH]c3ccccc23)C(c2ncc(-c3ccc4ccccc4c3)[nH]2)C1 (stereo not drawn) | 1010 to 5000 nM | – |
| CCCCCCN1CCN(C(=O)Cc2c(C)[nH]c3ccccc23)C(c2ncc(-c3ccc4ccccc4c3)[nH]2)C1 (stereo not drawn) | 510 to 1000 nM | – |

| SMILES | EC50 (Trypanosoma brucei) | EC50 |
| --- | --- | --- |
| CCCCCCN1CCN(C(=O)Cc2c[nH]c3ccc(O)cc23)C(c2ncc(-c3ccc4ccccc4c3)[nH]2)C1 (stereo not drawn) | 1010 to 5000 nM | – |
| CCCCCCN1CCN(C(=O)Cc2cn(C)c3ccccc23)C(c2ncc(-c3ccc4ccccc4c3)[nH]2)C1 (stereo not drawn) | 1010 to 5000 nM | – |
| CCCCCCN1CCN(C(=O)Cc2c[nH]c3cccnc23)C(c2ncc(-c3ccc4ccccc4c3)[nH]2)C1 (stereo not drawn) | 1010 to 5000 nM | – |
| CN1CCN(C(=O)Cc2c[nH]c3ncccc23)C(c2ncc(-c3ccc4ccccc4c3)[nH]2)C1 (stereo not drawn) | 1010 to 5000 nM | – |
| Cn1cc(CC(=O)N2CCN(CC3CCOC3)CC2c2ncc(-c3ccc4ccccc4c3)[nH]2)c2ccccc21 (stereo not drawn) | 100 to 500 nM | – |
| CN1CCN(C(=O)Cc2cn(C)c3ccccc23)C(c2ncc(-c3ccc4ccccc4c3)[nH]2)C1 (stereo not drawn) | 1010 to 5000 nM | – |
| O=C(Cc1n[nH]c2ccccc12)N1CCN(CCc2ccccc2)CC1c1ncc(-c2ccc3ccccc3c2)[nH]1 (stereo not drawn) | 1010 to 5000 nM | – |
| O=C(Cc1n[nH]c2ccccc12)N1CCN(CC2CCOC2)CC1c1ncc(-c2ccc3ccccc3c2)[nH]1 (stereo not drawn) | 1010 to 5000 nM | – |
| Cc1[nH]c2ccccc2c1CC(=O)N1CCN(CCc2ccccc2)CC1c1ncc(-c2ccc3ccccc3c2)[nH]1 (stereo not drawn) | 510 to 1000 nM | – |
| Cc1csc(CC(=O)N2CCN(CCc3ccccc3)CC2c2ncc(-c3ccc4ccccc4c3)[nH]2)n1 (stereo not drawn) | 1010 to 5000 nM | – |
| O=C(Cc1c[nH]c2ccc(O)cc12)N1CCN(CCc2ccccc2)CC1c1ncc(-c2ccc3ccccc3c2)[nH]1 (stereo not drawn) | – | 1010 to 5000 nM |
| O=C(Cc1c[nH]c2ccc(O)cc12)N1CCN(CC2CCOC2)CC1c1ncc(-c2ccc3ccccc3c2)[nH]1 (stereo not drawn) | 510 to 1000 nM | – |
| COc1ccc2[nH]cc(CC(=O)N3CCN(CC4CCOC4)CC3c3ncc(-c4cc5ccccc5nc4OC)[nH]3)c2c1 (stereo not drawn) | 100 to 500 nM | – |
| COc1ccc2[nH]c(C)c(CC(=O)N3CCN(C)CC3c3ncc(-c4ccc5ccccc5c4)n3C)c2c1 (stereo not drawn) | 1010 to 5000 nM | – |
| COc1ccc2[nH]c(C)c(CC(=O)N3CCN(C)CC3c3ncc(-c4ccccc4)[nH]3)c2c1 (stereo not drawn) | 1010 to 5000 nM | – |
| COc1ccc2nc(C(F)(F)F)n(CC(=O)N3CC[C@@H](N(C)CC4CCOC4)C[C@H]3c3ncc(-c4cc5ccccc5nc4OC)[nH]3)c2c1 (stereo partly drawn) | – | < 100 nM |
| COc1ccc2c(CC(=O)N3CCN(CC4CCOC4)CC3c3ncc(-c4cc5ccccc5nc4OC)[nH]3)coc2c1 (stereo not drawn) | 510 to 1000 nM | – |
| O=C(Cc1nc2ccccc2o1)N1CCN(CC2CCOC2)CC1c1ncc(-c2ccc3ccccc3c2)[nH]1 (stereo not drawn) | 510 to 1000 nM | – |
| O=C(Cc1nc2ccccc2o1)N1CCN(CC2CC2)CC1c1ncc(-c2ccc3ccccc3c2)[nH]1 (stereo not drawn) | 1010 to 5000 nM | – |

| SMILES | EC50 (Trypanosoma brucei) | EC50 |
| --- | --- | --- |
| COc1ccc2c(c1)C(CC(=O)N1CCN(CC3CC3)CC1c1ncc(-c3ccc4ccccc4c3)[nH]1)C(=O)N2 (stereo not drawn) | 1010 to 5000 nM | – |
| COc1ccc2c(c1)C(CC(=O)N1CCN(Cc3ccccc3)CC1c1ncc(-c3ccc4ccccc4c3)[nH]1)C(=O)N2 (stereo not drawn) | 510 to 1000 nM | – |
| CCCCCCN1CCN(C(=O)CC2C(=O)Nc3ccc(OC)cc32)C(c2ncc(-c3ccc4ccccc4c3)[nH]2)C1 (stereo not drawn) | 1010 to 5000 nM | – |
| COc1nc2ccccc2cc1-c1cnc(C2CN(CC3CCOC3)CCN2C(=O)CCc2n[nH]c3c2CCCC3)[nH]1 (stereo not drawn) | – | 1010 to 5000 nM |
| CNC(=O)CCCN1CCN(C(=O)Cc2c(C)[nH]c3ccc(OC)cc23)C(c2ncc(-c3ccc4ccccc4c3)[nH]2)C1 (stereo not drawn) | 100 to 500 nM | – |
| COc1ccc2[nH]c(C)c(CC(=O)N3CCN(CCCC(N)=O)CC3c3ncc(-c4ccc5ccccc5c4)[nH]3)c2c1 (stereo not drawn) | 100 to 500 nM | – |
| COc1ccc2c(c1)C(CC(=O)N1CCN(CC3CCOC3)CC1c1ncc(-c3ccc4ccccc4c3)[nH]1)C(=O)N2 (stereo not drawn) | 1010 to 5000 nM | – |
| COc1ccc2c(c1)C(CC(=O)N1CCN(CCc3ccccc3)CC1c1ncc(-c3ccc4ccccc4c3)[nH]1)C(=O)N2 (stereo not drawn) | 510 to 1000 nM | – |
| COc1ccc2c(c1)C(CC(=O)N1CCN(C)CC1c1ncc(-c3ccc4ccccc4c3)[nH]1)C(=O)N2 (stereo not drawn) | 1010 to 5000 nM | – |
| CCC(=O)CCCN1CCN(C(=O)Cc2ccccc2)C(c2ncc(-c3cc4ccccc4nc3OC)[nH]2)C1 (stereo not drawn) | 1010 to 5000 nM | – |
| CCC(=O)CCCN1CCN(S(=O)(=O)c2ccc3ccccc3c2)C(c2ncc(-c3ccc4ccccc4c3)[nH]2)C1 (stereo not drawn) | 1010 to 5000 nM | – |
| CCC(=O)CCCN1CCN(C(=O)c2cncs2)C(c2ncc(-c3ccc4ccccc4c3)[nH]2)C1 (stereo not drawn) | 1010 to 5000 nM | – |
| CCC(=O)CCCN1CCN(C(=O)C2CCN(C)CC2)C(c2ncc(-c3ccc4ccccc4c3)[nH]2)C1 (stereo not drawn) | 1010 to 5000 nM | – |
| COc1ccc2nc(O)cc(C(=O)N3CCN(CC4CCOC4)CC3c3ncc(-c4cc5ccccc5nc4OC)[nH]3)c2c1 (stereo not drawn) | 1010 to 5000 nM | – |
| COc1ccc2c(c1)[C@H](CC(=O)N1CCN(C)CC1c1ncc(-c3ccc4ccccc4c3)[nH]1)C(=O)N2 (stereo partly drawn) | 1010 to 5000 nM | – |
| COc1nc2ccccc2cc1-c1cnc(C2CN(CC3CCOC3)CCN2C(=O)c2cc3cc(OCc4ccccc4)ccc3[nH]2)[nH]1 (stereo not drawn) | 1010 to 5000 nM | – |
| CO[C@@](C(=O)N1CCN(C)C[C@@H]1c1ncc(-c2ccc3ccccc3c2)[nH]1)(c1ccccc1)C(F)(F)F | 1010 to 5000 nM | – |
| CN1CCN(C(=O)Cc2ccccc2)[C@H](c2ncc(-c3ccc4ccccc4c3)[nH]2)C1 | 1010 to 5000 nM | – |
| CO[C@](C(=O)N1CCN(C)C[C@@H]1c1ncc(-c2ccc3ccccc3c2)[nH]1)(c1ccccc1)C(F)(F)F | 1010 to 5000 nM | – |
